Experimental data from publication PMC6112376, “Comprehensive Analyses and Prioritization of Tox21 10K Chemicals Affecting Mitochondrial Function by in-Depth Mechanistic Studies” (Environmental Health Perspectives, 2018).
Like-named read-outs stand apart in the source and are kept apart here.

Tests used:
rat primary hepatocytes = experiment: MMP assay in rat primary hepatocytes
HepG2 cells [1] = details: HepG2 cells, single number from one experiment; for IC50: read-out: MMP assays IC50 (µM) HepG2
HepG2 cells [2] = details: cited from earlier work
[3] = system: isolated rat liver mitochondria; experiment: Oxygen consumption, Clark-type oxygen electrode; type: biochemical; details: for I-ADP, % of control (O2 consumption rate): glutamate/malate driven state 3 respiration; for I-ADP, % of control (O2 consumption rate) / I-sub, % of control (O2 consumption rate) / II-ADP, % of control (O2 consumption rate) / II-sub, % of control (O2 consumption rate): isolated rat liver mitochondria; for I-sub, % of control (O2 consumption rate): glutamate/malate driven state 4 respiration; for II-ADP, % of control (O2 consumption rate): succinate-driven state 3 respiration; for II-sub, % of control (O2 consumption rate): succinate-driven state 4 respiration
HepG2 cells [4] = experiment: cells; details: Homo sapiens; for Emax: HepG2, read-out: MMP assays efficacy (%) HepG2
[5] = rat hepatocytes, mean ± SD of three experiments
[6] = read-out: MMP assays IC50 (µM) Rat Hepatocytes, rat hepatocytes, mean ± SD of three experiments
[7] = read-out: MMP assays IC50 (µM) qHTS-HepG2
[8] = Rattus norvegicus, Hepatocyte, read-out: MMP assays IC50 (µM) Rat Hepatocytes
[9] = HepG2, read-out: MMP assays IC50 (µM) HepG2
[10] = read-out: MMP assays IC50 (µM), qHTS-HepG2

## CCCCCCCCCCCCn1cc[n+](C)c1.F[P-](F)(F)(F)(F)F
Rat primary hepatocytes; [5]
  MMP assays efficacy (%) Rat Hepatocytes: -111±27%
Rat primary hepatocytes; [6]
  IC50: 8.81 ± 2.46 µM
HepG2 cells [1]
  MMP assays efficacy (%) HepG2: -119%
  IC50: 5.01 µM

## CC1C2CC(CC2C2CCCC(O)C2)C1(C)C (stereo not drawn)
Rat primary hepatocytes; [5]
  MMP assays IC50 (µM) Rat Hepatocytes: inactive
  MMP assays efficacy (%) Rat Hepatocytes: inactive
HepG2 cells [1]
  MMP assays efficacy (%) HepG2: -108%
  IC50: 39.8 µM
HepG2 cells [2]
  MMP assays efficacy (%) qHTS-HepG2: -98±23%
HepG2 cells [2]; [7]
  IC50: 31.8 ± 17.5 µM

## C=CCc1cc(S(=O)(=O)c2ccc(O)c(CC=C)c2)ccc1O
Rat primary hepatocytes; [5]
  MMP assays efficacy (%) Rat Hepatocytes: -52±23%
Rat primary hepatocytes; [6]
  IC50: 24.5 ± 19.9 µM
HepG2 cells [1]
  MMP assays efficacy (%) HepG2: -107%
  IC50: 15.8 µM
HepG2 cells [2]
  MMP assays efficacy (%) qHTS-HepG2: -114±19%
HepG2 cells [2]; [7]
  IC50: 45 ± 17.9 µM

## CN[C@H]1CC[C@@H](c2ccc(Cl)c(Cl)c2)c2ccc(S(N)(=O)=O)cc21
Rat primary hepatocytes; [5]
  MMP assays efficacy (%) Rat Hepatocytes: -51±37%
Rat primary hepatocytes; [6]
  IC50: 35.7 ± 5.79 µM
HepG2 cells [1]
  MMP assays efficacy (%) HepG2: -84%
  IC50: 10 µM
HepG2 cells [2]
  MMP assays efficacy (%) qHTS-HepG2: -78±20%
HepG2 cells [2]; [7]
  IC50: 8.31 ± 1.43 µM

## CCCCCCCC[n+]1ccn(C)c1.F[P-](F)(F)(F)(F)F [1-Methyl-3-octylimidazolium hexafluorophosphate]
Rat primary hepatocytes; [5]
  MMP assays efficacy (%) Rat Hepatocytes: -86±43%
Rat primary hepatocytes; [6]
  IC50: 39.8 µM
HepG2 cells [1]
  MMP assays efficacy (%) HepG2: -77%
  IC50: 25.1 µM

## NNc1nc(-c2ccc([N+](=O)[O-])cc2)cs1 [2-Hydrazino-4-(4-nitrophenyl) thiazole]
[3]; 20 µM
  I-ADP, % of control (O2 consumption rate): 103 (50.6) % of control
  I-sub, % of control (O2 consumption rate): 119 (19.1) % of control
  II-ADP, % of control (O2 consumption rate): 98 (76.1) % of control
  II-sub, % of control (O2 consumption rate): 99 (30.4) % of control
[3]; 100 µM
  I-ADP, % of control (O2 consumption rate): 61 (32.3) % of control
  I-sub, % of control (O2 consumption rate): 159 (21.4) % of control
  II-ADP, % of control (O2 consumption rate): 114 (77.1) % of control
  II-sub, % of control (O2 consumption rate): 153 (33.1) % of control
[3]; mitochondrial respiration in isolated rat liver mitochondria, Clark type oxygen electrode, over tested concentrations
  Potential Mechanism: Uncoupler + inhibitor

## CCCCCCCCCCCCCC[P+](CCCCCC)(CCCCCC)CCCCCC.F[P-](F)(F)(F)(F)F [Trihexyltetradecylphosphonium hexafluorophosphate]
Rat primary hepatocytes; [5]
  MMP assays IC50 (µM) Rat Hepatocytes: inactive
  MMP assays efficacy (%) Rat Hepatocytes: inactive
HepG2 cells [1]
  MMP assays efficacy (%) HepG2: -91%
  IC50: 1.12 µM

## C(=C(c1ccccc1)c1ccccc1)c1ccccc1 [Triphenylethylene]
Rat primary hepatocytes; [8]
  IC50: 15.2 ± 11.5 µM
Rat primary hepatocytes; [5]
  MMP assays efficacy (%) Rat Hepatocytes: -74±30%
HepG2 cells [4]; [9]
  IC50: 31.6 µM
HepG2 cells [4]
  Emax: 54%
HepG2 cells [2]
  MMP assays efficacy (%) qHTS-HepG2: -88±31%
HepG2 cells [2]; [10]
  IC50: 35.7 ± 14.8 µM

## N#CC(C#N)=Cc1ccc(O)c(O)c1 [Tyrphostin 23]
Rat primary hepatocytes; [5]
  MMP assays IC50 (µM) Rat Hepatocytes: inactive
  MMP assays efficacy (%) Rat Hepatocytes: inactive
HepG2 cells [4]; [9]
  IC50: 17.3 µM
HepG2 cells [4]
  Emax: 103%
HepG2 cells [2]
  MMP assays efficacy (%) qHTS-HepG2: -107±6%
HepG2 cells [2]; [10]
  IC50: 17.7 ± 6.46 µM

## COc1cc(C(=O)NS(=O)(=O)c2ccccc2C)ccc1Cc1cn(C)c2ccc(NC(=O)OC3CCCC3)cc12 [Zafirlukast]
Rat primary hepatocytes; [8]
  IC50: 3.43 ± 1.47 µM
Rat primary hepatocytes; [5]
  MMP assays efficacy (%) Rat Hepatocytes: -114±33%
HepG2 cells [4]; [9]
  IC50: 13.8 µM
HepG2 cells [4]
  Emax: 105%
HepG2 cells [2]
  MMP assays efficacy (%) qHTS-HepG2: -108±3%
HepG2 cells [2]; [10]
  IC50: 10.6 ± 1.22 µM

## O=C(Nc1cccc(C(F)(F)F)c1)c1cc(Br)cc(Br)c1O [fluorosalan]
Rat primary hepatocytes; Rattus norvegicus, Hepatocyte, 1 h, read-out: IC50 in rat primary hepatocytes (MMP, tier-one retest)
  IC50: 0.42 µM
Rat primary hepatocytes; [5]
  MMP assays efficacy (%) Rat Hepatocytes: -74±9%
HepG2 cells [4]; HepG2, read-out: IC50 in HepG2 cells (MMP, tier-one retest)
  IC50: 0.19 µM
HepG2 cells [4]
  Emax: 100%
HepG2 cells [2]
  MMP assays efficacy (%) qHTS-HepG2: -104±5%
HepG2 cells [2]; [10]
  IC50: 0.24 ± 0.09 µM

## ON=C1C=CC(=NO)C=C1 [p-Benzoquinone dioxime]
Rat primary hepatocytes; [5]
  MMP assays IC50 (µM) Rat Hepatocytes: inactive
  MMP assays efficacy (%) Rat Hepatocytes: inactive
HepG2 cells [4]; [9]
  IC50: 25.1 µM
HepG2 cells [4]
  Emax: 58%
HepG2 cells [2]
  MMP assays efficacy (%) qHTS-HepG2: -71±6%
HepG2 cells [2]; [10]
  IC50: 43.3 ± 14.9 µM

## Oc1ccc(/N=N/c2ccccc2)cc1 [p-Phenylazophenol]
Rat primary hepatocytes; [5]
  MMP assays IC50 (µM) Rat Hepatocytes: inactive
  MMP assays efficacy (%) Rat Hepatocytes: inactive
HepG2 cells [4]; [9]
  IC50: 10 µM
HepG2 cells [4]
  Emax: 107%
HepG2 cells [2]
  MMP assays efficacy (%) qHTS-HepG2: -96±7%
HepG2 cells [2]; [10]
  IC50: 4.06 ± 1.23 µM
